Organism: Rattus norvegicus
Test: DrugMatrix - Regimen: Daily Repeat
Type: toxicity, organism-based, Sprague-Dawley
Parameters: regimen Daily Repeat, gender Male, age 6-8 weeks
Details: in vivo, po, route oral GAVAGE, […]; for ABSOLUTE BASOPHIL / ABSOLUTE EOSINOPHIL / ABSOLUTE LYMPHOCYTE / ABSOLUTE MONOCYTE / ABSOLUTE SEGMENTED NEUTROPHIL / BASOPHIL / EOSINOPHIL / ERYTHROCYTE COUNT / HEMATOCRIT / HEMOGLOBIN / LEUKOCYTE COUNT / LYMPHOCYTE / MEAN CORPUSCULAR HEMOGLOBIN / MEAN CORPUSCULAR HEMOGLOBIN CONCENTRATION / MEAN CORPUSCULAR VOLUME / MONOCYTE / NEUTROPHIL / NUCLEATED RED BLOOD CELLS / PLATELET COUNT: tissue Blood; for ALANINE AMINOTRANSFERASE / ALBUMIN / ALKALINE PHOSPHATASE / ASPARTATE AMINOTRANSFERASE / BLOOD UREA NITROGEN / CARBON DIOXIDE / CHLORIDE / CHOLESTEROL / CREATINE PHOSPHOKINASE / CREATININE / GLUCOSE / LACTATE DEHYDROGENASE / LIPASE / PHOSPHORUS / POTASSIUM / SODIUM / TOTAL BILIRUBIN / TOTAL PROTEIN / URIC ACID: tissue Plasma
[1] = 0 mg/kg, 72 h, dose level Control, time 3 day
[2] = 0 mg/kg, 120 h, dose level Control, time 5 day
[3] = 43 mg/kg, 72 h, dose level Low, time 3 day
[4] = 43 mg/kg, 120 h, dose level Low, time 5 day

Clc1ccc(COC(Cn2ccnc2)c2ccc(Cl)cc2Cl)cc1 (configuration not stated) [ECONAZOLE]
ABSOLUTE BASOPHIL [1]: 0 CELLS/uL | ABSOLUTE EOSINOPHIL [1]: 0 CELLS/uL | ABSOLUTE LYMPHOCYTE [1]: 7601 CELLS/uL | ABSOLUTE MONOCYTE [1]: 354.33 CELLS/uL | ABSOLUTE SEGMENTED NEUTROPHIL [1]: 744.67 CELLS/uL | BASOPHIL [1]: 0% | EOSINOPHIL [1]: 0% | ERYTHROCYTE COUNT [1]: 5.03 x10E6/uL | HEMATOCRIT [1]: 33.7% | HEMOGLOBIN [1]: 13.43 G/DL | LEUKOCYTE COUNT [1]: 8.7 x10E3/uL | LYMPHOCYTE [1]: 86.33% | MEAN CORPUSCULAR HEMOGLOBIN [1]: 26.7 pg | MEAN CORPUSCULAR HEMOGLOBIN CONCENTRATION [1]: 39.83 G/DL | MEAN CORPUSCULAR VOLUME [1]: 67 fL | MONOCYTE [1]: 4.67% | NEUTROPHIL [1]: 9% | NUCLEATED RED BLOOD CELLS [1]: 0 /100WBC | PLATELET COUNT [1]: 1151 x10E3/uL | ALANINE AMINOTRANSFERASE [1]: 97.67 u/L | ALBUMIN [1]: 4.07 G/DL | ALKALINE PHOSPHATASE [1]: 607.67 u/L | ASPARTATE AMINOTRANSFERASE [1]: 101 u/L | BLOOD UREA NITROGEN [1]: 13.33 mg/dL | CARBON DIOXIDE [1]: 36 mmol/L | CHLORIDE [1]: 99.67 MEQ/L | CHOLESTEROL [1]: 75.67 mg/dL | CREATINE PHOSPHOKINASE [1]: 279.67 u/L | CREATININE [1]: 0.16 mg/dL | GLUCOSE [1]: 164 mg/dL | LACTATE DEHYDROGENASE [1]: 115 u/L | LIPASE [1]: 12.67 u/L | PHOSPHORUS [1]: 8.77 mg/dL | POTASSIUM [1]: 5.79 MEQ/L | SODIUM [1]: 142.83 MEQ/L | TOTAL BILIRUBIN [1]: 0.27 mg/dL | TOTAL PROTEIN [1]: 5.8 G/DL | URIC ACID [1]: 0.67 mg/dL | ABSOLUTE BASOPHIL [2]: 0 CELLS/uL | ABSOLUTE EOSINOPHIL [2]: 0 CELLS/uL | ABSOLUTE LYMPHOCYTE [2]: 4426.33 CELLS/uL | ABSOLUTE MONOCYTE [2]: 102.67 CELLS/uL | ABSOLUTE SEGMENTED NEUTROPHIL [2]: 337.67 CELLS/uL | BASOPHIL [2]: 0% | EOSINOPHIL [2]: 0% | ERYTHROCYTE COUNT [2]: 5.31 x10E6/uL | HEMATOCRIT [2]: 32.5% | HEMOGLOBIN [2]: 13.17 G/DL | LEUKOCYTE COUNT [2]: 4.87 x10E3/uL | LYMPHOCYTE [2]: 90.33% | MEAN CORPUSCULAR HEMOGLOBIN [2]: 24.93 pg | MEAN CORPUSCULAR HEMOGLOBIN CONCENTRATION [2]: 40.67 G/DL | MEAN CORPUSCULAR VOLUME [2]: 61.33 fL | MONOCYTE [2]: 2.33% | NEUTROPHIL [2]: 7.33% | NUCLEATED RED BLOOD CELLS [2]: 0.33 /100WBC | PLATELET COUNT [2]: 848.33 x10E3/uL | ALANINE AMINOTRANSFERASE [2]: 59.67 u/L | ALBUMIN [2]: 3.87 G/DL | ALKALINE PHOSPHATASE [2]: 452 u/L | ASPARTATE AMINOTRANSFERASE [2]: 81.33 u/L | BLOOD UREA NITROGEN [2]: 13.67 mg/dL | CARBON DIOXIDE [2]: 26.33 mmol/L | CHLORIDE [2]: 103.67 MEQ/L | CHOLESTEROL [2]: 65.67 mg/dL | CREATINE PHOSPHOKINASE [2]: 355.33 u/L | CREATININE [2]: 0.14 mg/dL | GLUCOSE [2]: 171.33 mg/dL | LACTATE DEHYDROGENASE [2]: 118 u/L | LIPASE [2]: 11.33 u/L | PHOSPHORUS [2]: 11.13 mg/dL | POTASSIUM [2]: 5.18 MEQ/L | SODIUM [2]: 143.17 MEQ/L | TOTAL BILIRUBIN [2]: 0.2 mg/dL | TOTAL PROTEIN [2]: 5.87 G/DL | URIC ACID [2]: 0.63 mg/dL | ABSOLUTE BASOPHIL [3]: 0 CELLS/uL | ABSOLUTE EOSINOPHIL [3]: 68.67 CELLS/uL | ABSOLUTE LYMPHOCYTE [3]: 8555.33 CELLS/uL | ABSOLUTE MONOCYTE [3]: 189.33 CELLS/uL | ABSOLUTE SEGMENTED NEUTROPHIL [3]: 653.33 CELLS/uL | BASOPHIL [3]: 0% | EOSINOPHIL [3]: 0.67% | ERYTHROCYTE COUNT [3]: 4.93 x10E6/uL | HEMATOCRIT [3]: 32.1% | HEMOGLOBIN [3]: 12.8 G/DL | LEUKOCYTE COUNT [3]: 9.47 x10E3/uL | LYMPHOCYTE [3]: 90.67% | MEAN CORPUSCULAR HEMOGLOBIN [3]: 25.97 pg | MEAN CORPUSCULAR HEMOGLOBIN CONCENTRATION [3]: 39.9 G/DL | MEAN CORPUSCULAR VOLUME [3]: 65.1 fL | MONOCYTE [3]: 2% | NEUTROPHIL [3]: 6.67% | NUCLEATED RED BLOOD CELLS [3]: 0 /100WBC | PLATELET COUNT [3]: 1050.67 x10E3/uL | ALANINE AMINOTRANSFERASE [3]: 100.33 u/L | ALBUMIN [3]: 3.8 G/DL | ALKALINE PHOSPHATASE [3]: 429 u/L | ASPARTATE AMINOTRANSFERASE [3]: 104.67 u/L | BLOOD UREA NITROGEN [3]: 11.33 mg/dL | CARBON DIOXIDE [3]: 37.67 mmol/L | CHLORIDE [3]: 107 MEQ/L | CHOLESTEROL [3]: 72.33 mg/dL | CREATINE PHOSPHOKINASE [3]: 331 u/L | CREATININE [3]: 0.19 mg/dL | GLUCOSE [3]: 156.67 mg/dL | LACTATE DEHYDROGENASE [3]: 94 u/L | LIPASE [3]: 10.33 u/L | PHOSPHORUS [3]: 9.27 mg/dL | POTASSIUM [3]: 5.1 MEQ/L | SODIUM [3]: 138.9 MEQ/L | TOTAL BILIRUBIN [3]: 0.13 mg/dL | TOTAL PROTEIN [3]: 5.6 G/DL | URIC ACID [3]: 0.57 mg/dL | ABSOLUTE BASOPHIL [4]: 0 CELLS/uL | ABSOLUTE EOSINOPHIL [4]: 31.33 CELLS/uL | ABSOLUTE LYMPHOCYTE [4]: 7327.67 CELLS/uL | ABSOLUTE MONOCYTE [4]: 294.67 CELLS/uL | ABSOLUTE SEGMENTED NEUTROPHIL [4]: 379.67 CELLS/uL | BASOPHIL [4]: 0% | EOSINOPHIL [4]: 0.33% | ERYTHROCYTE COUNT [4]: 5.33 x10E6/uL | HEMATOCRIT [4]: 33.3% | HEMOGLOBIN [4]: 13 G/DL | LEUKOCYTE COUNT [4]: 8.03 x10E3/uL | LYMPHOCYTE [4]: 91% | MEAN CORPUSCULAR HEMOGLOBIN [4]: 24.4 pg | MEAN CORPUSCULAR HEMOGLOBIN CONCENTRATION [4]: 39.07 G/DL | MEAN CORPUSCULAR VOLUME [4]: 62.47 fL | MONOCYTE [4]: 3.67% | NEUTROPHIL [4]: 5% | NUCLEATED RED BLOOD CELLS [4]: 0 /100WBC | PLATELET COUNT [4]: 1117.67 x10E3/uL | ALANINE AMINOTRANSFERASE [4]: 59 u/L | ALBUMIN [4]: 3.97 G/DL | ALKALINE PHOSPHATASE [4]: 377.67 u/L | ASPARTATE AMINOTRANSFERASE [4]: 79 u/L | BLOOD UREA NITROGEN [4]: 12.33 mg/dL | CARBON DIOXIDE [4]: 28.67 mmol/L | CHLORIDE [4]: 104.33 MEQ/L | CHOLESTEROL [4]: 71.33 mg/dL | CREATINE PHOSPHOKINASE [4]: 198.33 u/L | CREATININE [4]: 0.22 mg/dL | GLUCOSE [4]: 162 mg/dL | LACTATE DEHYDROGENASE [4]: 63 u/L | LIPASE [4]: 12.33 u/L | PHOSPHORUS [4]: 10.33 mg/dL | POTASSIUM [4]: 5.68 MEQ/L | SODIUM [4]: 144.73 MEQ/L | TOTAL BILIRUBIN [4]: 0.17 mg/dL | TOTAL PROTEIN [4]: 5.93 G/DL | URIC ACID [4]: 0.5 mg/dL

— ChEMBL document CHEMBL3885881, “DrugMatrix”
